Test results taken from publication PMC3433420 (PLoS ONE, 2012).
Residues, ends and D or L forms follow the SMILES beside them.

Tests used:
Assay in all cases: In-house protein microarrays (with or without 5 mM DTT), protein named per line
Format in all cases: binding
SH2 and PTB domains [1] = biological target: T1, SH2 and PTB domains (Homo sapiens, UniProt P51813); settings: protein BMX
T1 construct: thioredoxin; made in house; host or cells: BL21(DE3)pLysS E. coli
T1 sequence (P51813 1-675): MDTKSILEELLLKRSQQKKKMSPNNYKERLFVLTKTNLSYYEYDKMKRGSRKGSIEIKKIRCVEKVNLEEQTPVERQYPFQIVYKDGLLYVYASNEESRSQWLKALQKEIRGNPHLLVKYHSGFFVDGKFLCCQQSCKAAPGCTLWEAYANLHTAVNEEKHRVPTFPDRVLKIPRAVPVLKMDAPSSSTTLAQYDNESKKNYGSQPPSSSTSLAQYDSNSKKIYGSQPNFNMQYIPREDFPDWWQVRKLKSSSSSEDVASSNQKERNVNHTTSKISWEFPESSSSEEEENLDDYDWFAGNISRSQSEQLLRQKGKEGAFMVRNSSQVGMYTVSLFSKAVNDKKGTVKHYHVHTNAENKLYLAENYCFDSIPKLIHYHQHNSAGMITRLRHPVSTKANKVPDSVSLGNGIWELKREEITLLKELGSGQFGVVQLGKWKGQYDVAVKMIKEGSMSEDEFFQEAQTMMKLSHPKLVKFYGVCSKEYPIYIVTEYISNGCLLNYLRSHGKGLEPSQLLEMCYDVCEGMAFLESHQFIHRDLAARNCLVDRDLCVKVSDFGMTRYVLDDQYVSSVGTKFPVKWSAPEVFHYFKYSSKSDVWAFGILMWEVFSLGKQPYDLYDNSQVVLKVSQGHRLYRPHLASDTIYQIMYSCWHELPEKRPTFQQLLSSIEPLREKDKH
In short: (§1)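 KD values come from rhodamine fluorescence of duplicate spots after subtraction of a thioredoxin control. Domains were printed at ~40 µM on aldehyde slides, blocked 1 h at room temperature in pH 7.8 HEPES/KCl buffer with 5 mM DTT and 1% BSA, then peptide-probed.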

SH2 and PTB domains [2] = biological target: T2, SH2 and PTB domains (Homo sapiens, UniProt Q96JZ2); settings: protein HSH2D; PM assay replicate # 39307; array fabrication # 39286
T2 construct: thioredoxin; made in house; host or cells: BL21(DE3)pLysS E. coli
In short: as §1

SH2 and PTB domains [3] = biological target: T3, SH2 and PTB domains (Homo sapiens, UniProt P78314); settings: protein SH3BP2
T3 construct: thioredoxin; made in house; host or cells: BL21(DE3)pLysS E. coli
T3 sequence (P78314 1-561): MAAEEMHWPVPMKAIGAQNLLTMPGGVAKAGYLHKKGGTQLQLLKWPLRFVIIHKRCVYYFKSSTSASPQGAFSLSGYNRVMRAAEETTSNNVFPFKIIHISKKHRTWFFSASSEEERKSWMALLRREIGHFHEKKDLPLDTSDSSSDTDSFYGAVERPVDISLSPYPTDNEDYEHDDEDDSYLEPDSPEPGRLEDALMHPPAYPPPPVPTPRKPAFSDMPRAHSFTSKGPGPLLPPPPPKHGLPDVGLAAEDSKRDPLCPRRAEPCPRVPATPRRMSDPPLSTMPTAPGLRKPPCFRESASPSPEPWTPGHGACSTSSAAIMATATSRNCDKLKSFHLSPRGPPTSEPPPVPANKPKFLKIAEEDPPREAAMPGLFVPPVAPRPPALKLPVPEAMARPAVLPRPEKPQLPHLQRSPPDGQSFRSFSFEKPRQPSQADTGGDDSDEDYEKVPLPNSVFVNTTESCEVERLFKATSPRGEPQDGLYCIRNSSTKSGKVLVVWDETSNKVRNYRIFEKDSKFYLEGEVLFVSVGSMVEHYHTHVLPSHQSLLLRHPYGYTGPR
In short: as §1

[4] = PM assay replicate # 39337, array fabrication # 39329
[5] = PM assay replicate # 39307, array fabrication # 39286
[6] = PM assay replicate # 39351, array fabrication # 39336
[7] = PM assay replicate # 39352, array fabrication # 39336

T2 sequence (Q96JZ2 whole entry, the tested form may be a part): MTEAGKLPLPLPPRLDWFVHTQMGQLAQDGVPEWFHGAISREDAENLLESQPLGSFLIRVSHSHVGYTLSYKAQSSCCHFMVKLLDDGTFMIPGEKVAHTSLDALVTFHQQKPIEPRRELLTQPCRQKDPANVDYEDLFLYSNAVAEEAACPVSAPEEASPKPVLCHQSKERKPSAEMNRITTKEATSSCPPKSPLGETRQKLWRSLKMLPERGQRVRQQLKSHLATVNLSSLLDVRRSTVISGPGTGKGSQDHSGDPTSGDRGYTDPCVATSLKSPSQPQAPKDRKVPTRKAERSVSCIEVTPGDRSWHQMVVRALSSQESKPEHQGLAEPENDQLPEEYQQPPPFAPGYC

Compound | Kd (SH2 and PTB domains [1]; PM assay replicate # 39336, array fabrication # 39329) [µM] | Kd (SH2 and PTB domains [1]; [4]) [µM] | Kd (SH2 and PTB domains [2]) [µM] | Kd (SH2 and PTB domains [3]; [5]) [µM] | Kd (SH2 and PTB domains [3]; [4]) [µM] | Kd (SH2 and PTB domains [3]; [6]) [µM] | Kd (SH2 and PTB domains [3]; [7]) [µM] | Kd (SH2 and PTB domains [1]; [5]) [µM]
CC(C)C[C@H](NC(=O)[C@@H]1CCCN1C(=O)[C@H](C)NC(=O)[C@@H](NC(=O)[C@H](Cc1ccc(OP(=O)(O)O)cc1)NC(=O)CNC(=O)[C@H](CC(=O)O)NC(=O)[C@@H](NC(=O)[C@@H](N)CCC(=O)O)[C@@H](C)O)C(C)C)C(=O)N[C@H](C(=O)N[C@@H](CS)C(=O)N[C@@H](CO)C(=O)N[C@@H](CC(=O)O)C(=O)O)[C@@H](C)O [ErbB2 pY1127] | 1.60 | 5.39 | – | – | – | – | – | –
CCN(CC)c1ccc2c(-c3ccc(C(=O)N[C@@H](CC(N)=O)C(=O)NCC(=O)N4CCC[C@H]4C(=O)N4CCC[C@H]4C(=O)N[C@@H](CCCCN)C(=O)N[C@@H](C)C(=O)N[C@@H](CCC(=O)O)C(=O)N[C@@H](CC(=O)O)C(=O)N[C@@H](CCC(=O)O)C(=O)N[C@@H](Cc4ccc(OP(=O)(O)O)cc4)C(=O)N[C@H](C(=O)N[C@@H](CC(N)=O)C(=O)N[C@@H](CCC(=O)O)C(=O)N4CCC[C@H]4C(=O)N[C@@H](CC(C)C)C(=O)N[C@@H](Cc4ccc(O)cc4)C(=O)N[C@@H](CC(C)C)C(=O)N[C@@H](CC(=O)O)C(=O)O)C(C)C)cc3C(=O)[O-])c3ccc(=[N+](CC)CC)cc-3oc2c1 [ErbB4 1202 (18-mer)] (HELM PEPTIDE1{[CCN(CC)c1ccc2c(-c3ccc(C(=O)[*:2])cc3C(=O)[O-])c3ccc(=[N+](CC)CC)cc-3oc2c1].N.G.P.P.K.A.E.D.E.[O=C([C@H](Cc1ccc(OP(=O)(O)O)cc1)N[*:1])[*:2]].V.N.E.P.L.Y.L.D}$$$$V2.0) | – | – | 0.97 | 0.50 | 2.06 | 1.61 | 15.93 | –
CC[C@H](C)[C@H](NC(=O)[C@H](CC(N)=O)NC(=O)[C@H](CC(N)=O)NC(=O)[C@H](CCCCN)NC(=O)[C@H](CC(C)C)NC(=O)[C@H](Cc1ccc(OP(=O)(O)O)cc1)NC(=O)[C@H](CCC(=O)O)NC(=O)[C@H](C)NC(=O)[C@H](CCCCN)NC(=O)CNC(=O)[C@H](CC(C)C)NC(=O)[C@@H](NC(=O)[C@H](CC(N)=O)NC(=O)[C@H](C)NC(=O)[C@@H](N)Cc1ccccc1)[C@@H](C)O)C(=O)N[C@@H](CC(C)C)C(=O)N[C@@H](CO)C(=O)N[C@@H](CC(=O)O)C(=O)O [ErbB4 pY1221 (18-mer)] (HELM PEPTIDE1{F.A.N.T.L.G.K.A.E.[O=C([C@H](Cc1ccc(OP(=O)(O)O)cc1)N[*:1])[*:2]].L.K.N.N.I.L.S.D}$$$$V2.0) | – | – | 0.99 | 1.24 | – | 2.36 | 10.86 | 0.42
